The target in experiment [1] is hNGAL (human lipocalin 2), wild type, SEQ ID NO: 1 (Homo sapiens, UniProt P80188). Put plainly: Surface plasmon resonance (Biacore T200). The class given is binding. As to conditions: positive control. An excerpt:
In a surface plasmon resonance (SPR) based assay, a Biacore T200 instrument (GE Healthcare) was used to measure the binding affinity of individual muteins or fusion molecules to pyoverdine siderophores (to pyoverdine I succinyl, -succinamide, -α-ketoglutaryl with complexed iron ion or to pyoverdine II succinyl, -succinamide, -α-ketoglutaryl with complexed iron ion or to pyoverdine III succinyl, -succinamide, -α-ketoglutaryl with complexed iron ion). To this end, muteins selected for binding to pyoverdines (SEQ ID NOs: 16, 36, 53), a fusion molecule (SEQ ID NO: 134) and a negative control (SEQ ID NO: 64) were biotinylated for 2 h at room temperature applying an appropriate excess of EZ-Link NHS-PEG4-Biotin (Thermo, Cat #21329) followed by separation of non-reacted biotin using a Zebra Spin Desalting Plate (Thermo, […]) according to the manufacturer's instructions.
In the SPR affinity assay, biotinylated muteins and negative control were captured on a sensor chip CAP using the Biotin CAPture Kit (GE Healthcare), wherein the Sensor Chip CAP is pre-immobilized with an ssDNA oligo. […] After ligand immobilization, the four concentrations of Pvd were applied consecutively in ascending order before the dissociation was monitored. […] Data were evaluated with Biacore T200 Evaluation software (V 1.0). […]
Background: Surface plasmon resonance follows binding to a sensor surface in real time, without labels.

Experiment [2] concerns the target T1, Fusion molecule SEQ ID NO: 134 (hNGAL muteins SEQ ID NOs: 36, 16, 53 and 62) (Homo sapiens, UniProt P80188, A60T/C107S/D97H, form not given/K145I/K154W/K93R/L123T/L56V/L90R/N85D/Q69G/R101D/R92I/S147R/S88D/T74A/W99Y/Y126Q/Y152I/Y72N).
T1 construct: made in house; host or cells: HEK293
The experiment in a line: Surface plasmon resonance (Biacore T200). The class given is binding.

For experiment [3], the target named is T2, hNGAL (human lipocalin 2, parent wild type SEQ ID NO: 1) mutein SEQ ID NO: 62 (Homo sapiens, UniProt P80188, A60Q/C107S/D65G/D97L/I61W/K145F/K154F/K66R/K93I/L123G/L56H/L90D/N85D/Q69R/R101T/R92A/S147I/S88D/W99R/Y120H/Y126G/Y152A/Y72W).
T2 construct: made in house
T2 sequence (P80188 21-198 with the stated changes): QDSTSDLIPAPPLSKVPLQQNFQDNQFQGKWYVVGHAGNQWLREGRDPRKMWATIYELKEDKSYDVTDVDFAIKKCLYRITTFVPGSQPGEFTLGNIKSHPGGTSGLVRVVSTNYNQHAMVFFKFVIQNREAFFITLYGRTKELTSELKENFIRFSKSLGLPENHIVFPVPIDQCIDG
The experiment in a line: Surface plasmon resonance (Biacore T200), CM5 chip. The class given is binding. As to conditions: SPR, high concentrations (≥1 μM).
Experimental: (§1) Subsequently, 5 μg/mL of mutein or the negative control solution in 10 mM acetate pH 4.0 was applied at a flow rate of 10 μl/min until a high immobilization level of approximately 2000 RU was achieved. Residual activated groups were quenched with ethanolamine. The reference channels were treated with EDC/NHS following ethanolamine (blank immobilization).
The binding assay was carried out with a contact time of 180 s, dissociation times of 1200-1800 s and applying a flow rate of 30 μl/min. Measurements were performed at 25° C. Regeneration of the immobilized mutein surface was achieved by three consecutive injections of 10 mM Gly-HCl pH 1.5 (120 s) followed by an extra wash with running buffer and a stabilization period. Data were evaluated with Biacore T200 Evaluation software (V 1.0). Double referencing was used. The 1:1 Binding model was used to fit the raw data.
Subsequently, 5 μg/mL of mutein or the negative control solution in 10 mM acetate pH 4.0 was applied at a flow rate of 10 μl/min until a high immobilization level of approximately 2000 RU was achieved. Residual activated groups were quenched with ethanolamine. The reference channels were treated with EDC/NHS following ethanolamine (blank immobilization). […] The binding assay was carried out with a contact time of 180 s, dissociation times of 1500-1800 s and applying a flow rate of 30 μl/min. Measurements were performed at 25° C. Regeneration of the immobilized mutein surface was achieved by three consecutive injections of 10 mM Gly-HCl pH 1.5 (120 s) followed by an extra wash with running buffer and a stabilization period. Data were evaluated with Biacore T200 Evaluation software (V 1.0). Double referencing was used. The 1:1 Binding model was used to fit the raw data.

For experiment [4], the target named is lipocalin negative control SEQ ID NO: 64 (Homo sapiens, UniProt P80188, C107S/Q48H). Put plainly: Surface plasmon resonance (Biacore T200). The class given is binding. As to conditions: Biacore, Example 18.
Chain of lipocalin negative control SEQ ID NO: 64 (P80188 21-198 Q48H/C107S): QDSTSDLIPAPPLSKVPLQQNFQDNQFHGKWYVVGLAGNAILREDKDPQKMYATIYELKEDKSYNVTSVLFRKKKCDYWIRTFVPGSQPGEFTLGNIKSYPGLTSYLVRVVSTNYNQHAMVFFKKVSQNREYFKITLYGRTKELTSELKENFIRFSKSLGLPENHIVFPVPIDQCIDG
Experimental: In a Surface Plasmon Resonance (SPR) based assay a Biacore T200 instrument (GE Healthcare) was used to measure the binding affinity of muteins to pyoverdine I succinyl, -succinamide, -α-ketoglutaryl with complexed iron ion or to pyoverdine II succinyl, -succinamide, -α-ketoglutaryl with complexed iron ion or to pyoverdine III succinyl, -succinamide, -α-ketoglutaryl with complexed iron ion. Muteins selected for binding to pyoverdines and negative control (SEQ ID NO: 64) were biotinylated for 2 h at room temperature applying an appropriate excess of EZ-Link NHS-PEG4-Biotin (Thermo, Cat #21329) followed by separation of non-reacted Biotin using a Zebra Spin Desalting Plate (Thermo, Cat #21329) according to the manufactures instructions.
In the SPR affinity assay, biotinylated muteins and negative control were captured on a sensor chip CAP using the Biotin CAPture Kit (GE Healthcare): Sensor Chip CAP is pre-immobilized with an ssDNA oligo. Undiluted Biotin CAPture Reagent (streptavidin conjugated with the complementary ss-DNA oligo) was applied at a flow rate of 2 μl/min for 300 s. Subsequently, 1 μg/ml to 100 μg/mL of biotinylated muteins or negative control were applied for 300 s at a flow rate of 5 μl/min. The reference channel was loaded with Biotin CAPture Reagent only.
Applying a flow rate of 30 μl/min, a single cycle or multi cycle kinetics approach was used with a sample contact time of 120-180 s and a dissociation time of 900-2400 s. […] After ligand immobilization, for analysis using single cycle kinetics all 4-5 concentrations of Pvd were applied consecutively in ascending order before the dissociation was monitored. For analysis using multi cycle kinetics 4 dilutions of Pvd were applied, each followed a dissociation phase. All measurements were performed at 25° C. […] Data were evaluated with Biacore T200 Evaluation software (V 1.0). Double referencing was used. A 1:1 Binding model was used to fit the raw data.
as §1
In the SPR affinity assay, biotinylated muteins and negative control were captured on a sensor chip CAP using the Biotin CAPture Kit (GE Healthcare), wherein the Sensor Chip CAP is pre-immobilized with an ssDNA oligo. Undiluted Biotin CAPture Reagent (streptavidin conjugated with the complementary ss-DNA oligo) was applied at a flow rate of 2 μl/min for 300 s. Subsequently, 20 μg/ml to 100 μg/mL of biotinylated muteins or fusion molecule negative control were applied for 300 s at a flow rate of 5 μl/min. The reference channel was loaded with Biotin CAPture Reagent only. To determine the binding affinity, four dilutions of the respective Pvd were prepared in HBS-EP+ buffer (GE Healthcare) and applied to the chip surface. Applying a flow rate of 30 μl/min, a single cycle kinetics approach was used with a sample contact time of 180 s and a dissociation time of 1800-2400 s. […] After ligand immobilization, the four concentrations of Pvd were applied consecutively in ascending order before the dissociation was monitored. All measurements were performed at 25° C. […] Data were evaluated with Biacore T200 Evaluation software (V 1.0). Double referencing was preformed. A 1:1 binding model was used to fit the raw data.
A further experiment has as its system P. aeruginosa PA01. The experiment in a line: Chronic lung infection model in rats. The class given is in vivo, Sprague Dawley rats. To be noted: 20 mg/kg/dose, IV BD, treatment from day 3 post infection.

T1 sequence (P80188 with tags, fused parts or gaps with the stated changes, form open): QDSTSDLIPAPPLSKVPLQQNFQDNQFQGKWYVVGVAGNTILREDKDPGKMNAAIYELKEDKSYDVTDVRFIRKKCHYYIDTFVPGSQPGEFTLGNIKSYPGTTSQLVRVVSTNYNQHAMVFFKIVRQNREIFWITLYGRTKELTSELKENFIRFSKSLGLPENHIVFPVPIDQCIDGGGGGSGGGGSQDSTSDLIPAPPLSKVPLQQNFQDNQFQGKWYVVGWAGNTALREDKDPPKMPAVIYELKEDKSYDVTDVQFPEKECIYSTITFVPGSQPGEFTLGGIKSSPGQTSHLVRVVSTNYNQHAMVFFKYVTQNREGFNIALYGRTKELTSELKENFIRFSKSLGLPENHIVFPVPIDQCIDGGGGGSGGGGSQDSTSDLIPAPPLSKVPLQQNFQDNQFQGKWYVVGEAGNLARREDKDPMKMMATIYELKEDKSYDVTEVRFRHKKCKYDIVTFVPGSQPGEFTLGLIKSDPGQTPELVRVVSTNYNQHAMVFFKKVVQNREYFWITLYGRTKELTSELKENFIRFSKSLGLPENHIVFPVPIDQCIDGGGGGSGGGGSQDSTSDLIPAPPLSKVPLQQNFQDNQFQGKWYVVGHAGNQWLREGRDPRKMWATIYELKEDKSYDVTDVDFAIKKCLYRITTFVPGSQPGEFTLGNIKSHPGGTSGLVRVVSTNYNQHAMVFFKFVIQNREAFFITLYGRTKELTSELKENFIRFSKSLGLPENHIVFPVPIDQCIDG
Chain of hNGAL (human lipocalin 2), wild type, SEQ ID NO: 1 (P80188 21-198): as the sequence (P80188 21-198 Q48H/C107S) above, with H28Q, S87C counted along it
Experimental for P. aeruginosa PA01: P. aeruginosa, PA01, was recovered from long-term storage at −80° C. by sub-culturing onto fresh blood agar plates and incubating at 37° C. overnight. The inoculum was prepared by picking 5-10 distinct colonies from the culture plates followed by suspension in 10 mL of Muller-Hinton broth. The culture was incubated for 18 hours on an orbital shaker at 300 rpm and 37° C. The culture was washed twice in PBS, then the pellet was resuspended in PBS and adjusted to an optical density of 0.669 at 600 nm (approximately 1.2×10^9 CFU/mL). This was further diluted to give an inoculum concentration of 6×10^7 CFU/mL. 1 mL of this inoculum was added to 30 mL of bacteriological agar, used to prepare the agarose beads (Cash H. A. et al., 1979). The final concentration of PA01 in the agarose beads was 2×10^6 CFU/mL (1×10^5 CFU per 50 μL inoculum).
Sprague Dawley rats used in this study were supplied by Charles River Laboratories UK. Rats were 200-225 g at the time of delivery and were specific pathogen free. Following arrival, rats were allowed at least 7 days acclimatization before the study was started. Rats were 250-300 g at the start of the study. Rats were group housed in sterile individually ventilated cages exposing the animals at all times to HEPA filtered sterile air. Rats had free access to food and water (sterile) and had sterile aspen chip bedding (changed every 3-4 days or as appropriate). […]

Regarding `O=C(N[C@H]1COC(=O)[C@@H](NC(=O)c2cccc(O)c2O)COC(=O)[C@@H](NC(=O)c2cccc(O)c2O)COC1=O)c1cccc(O)c1O.[Fe+3]` [Fe-Enterobactin, Fe-enterobactin], the binding result in experiment [1] is recorded as “showed binding”; in experiment [2] (SPR, high concentrations (≥1 μM)), “absence of binding”; in experiment [3] it was “absence of binding”; in experiment [4], “showed binding”. Moreover, the KD entry in experiment [2] (Biacore, 25° C., Table 13) is “no bdg”.

Consider `NC[C@H]1O[C@H](O[C@H]2[C@H](O)[C@@H](O[C@H]3O[C@H](CO)[C@@H](O)[C@H](N)[C@H]3O)[C@H](N)C[C@@H]2N)[C@H](N)C[C@@H]1O` [Tobramycin], for which the “clearance of lung infection” value with P. aeruginosa PA01 is reported as “cleared the infection starting from day 5 post-infection”.

For the origin of these results see patent US10947284B2, “Fusion molecules” (Pieris Pharmaceuticals GMBH, priority 2015, dated 2021).
